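Interpolation was linear, between the two tested concentrations surrounding the appropriate level; five concentrations were tested over 48 hours in 96-well plates. At the GI50, growth is halved.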 Activity calls are given as the source filed them. Rule as the data show it: active = GI50 up to about 1.1 µM and inactive = higher.
Assays:
Test in all cases: NCI anticancer screen, dose series, 48 h
CCRF-CEM = tested on: CCRF-CEM
OVCAR-5 = tested on: OVCAR-5
HOP-92 = tested on: HOP-92
UACC-257 = tested on: UACC-257
NCI/ADR-RES = tested on: NCI/ADR-RES
RXF 393 = tested on: RXF 393
NCI-H226 = tested on: NCI-H226
SK-MEL-5 = tested on: SK-MEL-5
HCT-116 = tested on: HCT-116
PC-3 = tested on: PC-3
HOP-62 = tested on: HOP-62
M14 = tested on: M14
786-0 = tested on: 786-0
SF-539 = tested on: SF-539
SR = tested on: SR
CAKI-1 = tested on: CAKI-1
UACC-62 = tested on: UACC-62
TK-10 = tested on: TK-10
SN12C = tested on: SN12C
NCI-H522 = tested on: NCI-H522

Measured: GI50

CCN(CC)C(=O)Cn1c2ccccc2[n+]2cc(N)ccc12
inactive: CCRF-CEM > 100 µM | OVCAR-5 > 100 µM | HOP-92 > 100 µM | UACC-257 > 100 µM | NCI/ADR-RES > 100 µM | RXF 393 > 100 µM | NCI-H226 > 100 µM | SK-MEL-5 > 100 µM | HCT-116 > 100 µM | PC-3 > 100 µM | HOP-62 > 100 µM | M14 > 100 µM | 786-0 > 100 µM | SF-539 > 100 µM | SR > 100 µM | CAKI-1 > 100 µM | UACC-62 > 100 µM | TK-10 > 100 µM

O=S1(=O)c2ccccc2N2C(c3ccccc3)=NOC2(c2ccccc2)CC1c1ccc(Br)cc1 (configuration not stated)
inactive: SN12C > 100 µM | CCRF-CEM > 100 µM | OVCAR-5 > 100 µM | HOP-92 32.4 µM | UACC-257 > 100 µM | NCI/ADR-RES > 100 µM | RXF 393 > 100 µM | NCI-H226 > 100 µM | SK-MEL-5 > 100 µM | HCT-116 > 100 µM | PC-3 > 100 µM | NCI-H522 > 100 µM | HOP-62 > 100 µM | M14 95.7 µM | 786-0 > 100 µM | SF-539 > 100 µM | SR > 100 µM | UACC-62 > 100 µM | TK-10 > 100 µM

COc1ccc(NC(C)=O)cc1N1C(=O)/C(=C\c2cccc(Oc3ccccc3)c2)SC1c1ccccc1 (configuration not stated)
inactive: SN12C 20.4 µM | CCRF-CEM 10.3 µM | OVCAR-5 29.3 µM | HOP-92 20.9 µM | UACC-257 40.6 µM | NCI/ADR-RES 19.2 µM | RXF 393 39.7 µM | NCI-H226 82.2 µM | SK-MEL-5 30.5 µM | HCT-116 11.6 µM | PC-3 21.7 µM | NCI-H522 28.4 µM | HOP-62 34.3 µM | M14 34.1 µM | 786-0 24.3 µM | SR 3.7 µM | CAKI-1 28.4 µM | UACC-62 26.7 µM | TK-10 49.3 µM

O=S1(=O)OCCOS(=O)(=O)C1(F)Br
inactive: SN12C > 100 µM | CCRF-CEM > 100 µM | OVCAR-5 > 100 µM | UACC-257 > 100 µM | NCI/ADR-RES > 100 µM | RXF 393 > 100 µM | NCI-H226 > 100 µM | SK-MEL-5 > 100 µM | HCT-116 > 100 µM | PC-3 > 100 µM | NCI-H522 > 100 µM | HOP-62 > 100 µM | M14 > 100 µM | 786-0 > 100 µM | SF-539 > 100 µM | SR > 100 µM | CAKI-1 > 100 µM | UACC-62 > 100 µM | TK-10 > 100 µM

COC(=O)Nc1nc(=O)c2ccccc2[nH]1
inactive: SN12C > 100 µM | CCRF-CEM > 100 µM | OVCAR-5 > 100 µM | UACC-257 > 100 µM | NCI/ADR-RES > 100 µM | RXF 393 36.8 µM | NCI-H226 > 100 µM | SK-MEL-5 55 µM | HCT-116 48.8 µM | PC-3 > 100 µM | NCI-H522 50.1 µM | HOP-62 > 100 µM | M14 > 100 µM | 786-0 > 100 µM | SF-539 > 100 µM | SR > 100 µM | CAKI-1 > 100 µM | UACC-62 > 100 µM | TK-10 > 100 µM

Cc1nc(N)c(N2CCN(C(=O)O)CC2)c(O)n1
inactive: SN12C > 100 µM | CCRF-CEM > 100 µM | OVCAR-5 > 100 µM | HOP-92 > 100 µM | UACC-257 > 100 µM | NCI/ADR-RES > 100 µM | NCI-H226 > 100 µM | HCT-116 > 100 µM | PC-3 > 100 µM | NCI-H522 > 100 µM | HOP-62 > 100 µM | M14 > 100 µM | 786-0 > 100 µM | SF-539 > 100 µM | SR > 100 µM | TK-10 > 100 µM

CN(NC(=O)CCCl)C1=NCCN1
inactive: SN12C > 100 µM | CCRF-CEM > 100 µM | OVCAR-5 > 100 µM | HOP-92 > 100 µM | UACC-257 > 100 µM | NCI/ADR-RES > 100 µM | RXF 393 > 100 µM | NCI-H226 > 100 µM | SK-MEL-5 > 100 µM | HCT-116 > 100 µM | PC-3 > 100 µM | NCI-H522 > 100 µM | HOP-62 > 100 µM | M14 > 100 µM | 786-0 > 100 µM | SF-539 > 100 µM | SR > 100 µM | UACC-62 > 100 µM | TK-10 > 100 µM

CC(CO)(CBr)COC(=O)c1cc(Br)c(N)c(Br)c1 (configuration not stated)
inactive: SN12C > 100 µM | CCRF-CEM > 100 µM | OVCAR-5 > 100 µM | HOP-92 20.4 µM | UACC-257 > 100 µM | NCI/ADR-RES > 100 µM | NCI-H226 > 100 µM | SK-MEL-5 > 100 µM | HCT-116 94 µM | PC-3 > 100 µM | HOP-62 32.4 µM | M14 > 100 µM | 786-0 50.1 µM | SF-539 > 100 µM | SR 30.7 µM | CAKI-1 81.3 µM | UACC-62 > 100 µM | TK-10 43 µM

CCCCCCCCCC(=O)OCC1(CO)C/C(=C/CC(C(C)C)C(C)C)C(=O)O1 (configuration not stated)
inactive: SN12C 51.9 µM | CCRF-CEM 14.9 µM | OVCAR-5 64.9 µM | HOP-92 > 100 µM | UACC-257 > 100 µM | NCI/ADR-RES > 100 µM | RXF 393 > 100 µM | NCI-H226 74.5 µM | SK-MEL-5 25.7 µM | HCT-116 33.5 µM | PC-3 42.4 µM | NCI-H522 19.4 µM | HOP-62 30 µM | M14 51.2 µM | 786-0 35.7 µM | SR 26.2 µM | CAKI-1 16 µM | UACC-62 49.2 µM | TK-10 77.6 µM

O=C(Nc1ccc(Cl)cc1)c1cc2c(cc1Cl)SC(NNCCO)=NS2(=O)=O
inactive: CCRF-CEM > 100 µM | HOP-92 92.3 µM | UACC-257 > 100 µM | NCI/ADR-RES > 100 µM | RXF 393 > 100 µM | NCI-H226 > 100 µM | SK-MEL-5 > 100 µM | HCT-116 > 100 µM | PC-3 > 100 µM | HOP-62 > 100 µM | M14 > 100 µM | 786-0 > 100 µM | SF-539 > 100 µM | SR > 100 µM | CAKI-1 > 100 µM | UACC-62 > 100 µM | TK-10 > 100 µM

CC1=NOC2(C1)/C(=N/O)CCC/C2=N\O (configuration not stated)
inactive: SN12C > 100 µM | CCRF-CEM > 100 µM | OVCAR-5 > 100 µM | UACC-257 > 100 µM | NCI/ADR-RES > 100 µM | RXF 393 3.39 µM | NCI-H226 > 100 µM | SK-MEL-5 > 100 µM | HCT-116 > 100 µM | PC-3 > 100 µM | NCI-H522 > 100 µM | HOP-62 > 100 µM | M14 > 100 µM | 786-0 > 100 µM | SF-539 > 100 µM | SR > 100 µM | CAKI-1 > 100 µM | UACC-62 > 100 µM | TK-10 > 100 µM

Reference: ChEMBL document CHEMBL1201862, “PubChem BioAssay data set” (2004)
